Laboratory results taken from publication PMC12851007 (Angewandte Chemie (International Ed. in English), 2025).
Where two headings read alike, the source gives them in different places.

What was measured:
[1] = format: binding; details: LCG displacement in 10 mM Hepes, pH 7.0, 25 °C; fluorescence; error = SD of nonlinear fit, n = 1
Method: Fluorescence titrations were performed as previously described and the resulting titration curves we re an al yz ed usi ng established pro cedur es . Competitive titrations were eithe r anal yz ed with a fitting function assuming 1:1 host-competitor complexes[3] or with a fitting function involving hi gher complex es with more than on e h ost bound per peptide.[4] In the latter c ase, an identical binding affinity is assumed for all binding sites. […]
Figure S1. a) Fluorescence titration of 0.5 µM LCG ( λex = 369 n m) with varying concentrations of CX4 in 10 mM Hepes, pH 7.0, 25 °C .b) Respective titration curve ( λem = 502 nm) with fitted line . […]
Figure S2. a) Competitive fluorescence titration wit h 0.5 µM LCG, 1 µM CX4 ( λex = 369 nm) and varying concentrations of penetratin in 10 mM Hepes, pH 7.0, 25 °C . b) Respective titration c ur ve (λem = 502 nm) with fitted line .
(also on this page, place not known: analyzed using procedures. were either analyzed host -competitor higher complexes one host case, 700 Intensity Intensity (λex °C. line. 650 0 Intensity 0 Intensity b) curve (λem nm) with line.)

[2] = Dual-channel assay, CX4/LCG channel, POPC vesicles; format: in vitro ADME; details: dual-channel; seven independent POPC LUV batches (n = 7), penetratin 15 µM, Pep-1 10 µM, LRLLRW 30 µM, TP10 0.15 µM, 10 mM Hepes, 175 mM glucose, pH 7.5, t-test/ANOVA p < 0.001; melittin: Figure S35 and Table S9
Source text: With the established identical extravesicular conditions in both assays, we further envisaged a simultaneous measurement of both assays within the same solution to enhance the comparability of the measurements. This became possible after optimization of the excitation and emission wavelengths. […] A further optimization was required, because the dye concentrations in the CF assay and the CX4/LCG assay are largely different.^[ [51], [52] ^] Consequently, simultaneous monitoring requires the detection of a low amount of LCG in the presence of a high concentration of the much more brightly fluorescent CF, which challenges the dynamic range of a typical fluorescence spectrometer in a dual‐channel measurement. To reduce the fluorescence read‐out of CF, the excitation wavelength was shifted from the absorption maximum at ca. 490 nm to 525 nm, where CF has a much lower absorbance, and the emission in the CF channel was shifted from its maximum at ca. 515 nm to 545 nm to further reduce the fluorescence of CF. To maintain a high LCG fluorescence, excitation was performed at the absorption maximum at 369 nm. Since CF has a residual absorbance at this excitation wavelength, emission in the LCG channel was monitored at 475 nm instead of 502 nm to eliminate spill‐over of CF fluorescence into the LCG channel. […]
Time-dep endent fluores cence intensit y traces, I (t), were subsequentl y normalized to fractional intensities, If(t), using equation (1) and the concentration- dependent fractional intensities just before the addition of th e calibration co cktail, I f, w ere then normaliz ed to fr actional membran e activities, Y, using equation (2). The fractional membrane activities, Y, were subsequently plotted against the peptide concentration, c, and anal ysed using the Hill equation (3) to obtain the effective molar concentration, EC 50, and the Hill coefficient, n. For peptides with too low activity to determine Y max ex perimentall y, Y max was fixed at 1.0 during fitting. […]
Dual-Channel Measurements
Vesicles w ere prep ared a s described abov e (se e en try (4) in Table S2 and entry (3) in Table S3) and eluted with freshl y prepared 10 mM Hepes, 175mM glucos e, pH 7.5 i n the size exclusion chromatograph y. For the measurements, an approp riate volume o f the liposome stock solutions was diluted to 2m L in a 10× 10 mm PS cuvette wi th 10 mM Hep es bu ffer and 175 mM glucos e at pH 7.5 to afford 12.5µM POPC ⊃CX4/LCG-LUVs and 12.5 µM POPC⊃CF-LUVs (25 µM POPC total). The cuvette was placed into a thermostatted fluorimeter sample holder at 25.0 °C and gentl y stirred at 300 rpm. The fluorescence intensity w as simultaneous l y r eco rded in the CF chann el ( λ exc = 525 nm, λ em = 545 nm) and in the LCG channel ( λ exc = 369 nm, λ em = 475 nm) with an ex citation slit width of 5 nm and an emission slit width of 5 n m during addition of 20 µL peptide stock solution of varying concentrations at 60 s and 20 µL of a calibration

[3] = CX4/LCG tandem membrane assay with subsequent addition of spermine (transient vs stable pores); format: in vitro ADME; details: TP10 0.2 µM or melittin 5 nM at 60 s, spermine 20 µM at 340 s, 10 mM Hepes, 175 mM glucose, pH 7.5
Method: This means that TP10 renders the vesicle membranes only transiently permeable, while after some time, the pores “close”, most likely due to equilibration of the inside and outside concentrations of TP10. At sufficiently low TP10 concentrations, the vesicles have consequently released only some of their content after a certain incubation time and no further release of encapsulated compounds is observed thereafter. The transient nature of the TP10 pores was also confirmed herein by the CX4/LCG tandem membrane assay (Figure 4, black line). […] At this point of time, the TP10 pores should be either closed, or there should be some remaining stable equilibrium pores, which are too small to allow efflux of relatively large CX4 and/or LCG (MW > 500 Da), but sufficiently large to allow CF efflux (MW = 376 Da). Closed pores would refer to the previously reported graded mechanism, whereas the latter would point toward an all‐or‐none release mechanism.^[ [12], [70] ^] […] The newly developed assay has therefore the added capacity to afford more fine‐grained mechanistic information on membrane activity.
The blue trace is a control to illustrate full dissociation of the CX4/LCG complex during vesicle lysis by TX‐100.
LysisLysis vesicle lysisvesicle lysis […]
calibration cocktail at 600 s. a) Original changes in fluorescence intensity of LCG ( λex = 369 nm, λem = […]

[4] = CX4/LCG supramolecular tandem membrane assay, POPC vesicles; format: in vitro ADME; details: 30 µM peptide; 25 µM POPC⸧CX4/LCG-LUVs (inside 700 µM CX4, 500 µM LCG) in 10 mM Hepes, pH 7.0, 25 °C; fluorescence λexc 369/λem 502 nm; peptide at 60 s, TX-100/protamine at 600 s; fractional activity; n = 1
Method: Membrane Activity M easurements
Vesicle preparation. 100 µ L of a solution of 25 mg/ml of POPC in chloroform or 200 µ L of a solution of 25 mg/ml of EYPC in chloroform was purged with nitrogen and dried overnight under hi gh vacuum. The thin lipid film was rehydrated with 1 ml reh ydrati on buffer (= inside buffer, see Tabl e S2 ) b y agitation at room temperature for 30min and then subjected to 2 0 freeze- th aw c ycles (freezing in liquid nitro gen and thawing at 40 °C). […]
Ta b l e S 2. Combinations of lipids and inside and outside buffer for CX4/LCG -LUVs.
No. Lipid Inside buffer = rehydration buffer Outside buffer
(4) POPC 10 mM Hepes, 700 µM CX4, 500 µM LCG, 10 mM Hepes buffer, 175 mM glucose, pH 7.5 [a] 175 mM glucose, pH 7.5 [a]
[a] Glucose b uffers (183 mOsm/L at 25 °C) were used within one week after preparation.
Vesicle quality control. T o ensure the absence of the CX4/ LCG reporter pair in the ex travesicular ph ase, 20 µL of the collected liposome fr action w as diluted to 2 ml with outside buffer and the fluor escen ce (λ exc = 369 nm; λ em = 502 nm) was recorded during the addition of […]
The final lipid content in the liposome suspension after p repa rat ion and separ ation was d etermined b y NMR as p reviousl y reported. Assay protocol. An appropriate volume of the liposome stock solutions was diluted to 2m L with outside buffer in a 10 ×10 mm quartz glass cuvette to afford a phospholipid concentration of 25 µM. The cuvette was placed into a thermostatted fluorimeter sample holder at 25.0 °C and gentl y stirred at 300 rpm. Subsequently, the time-dependent change in fluorescence intensity (λ exc = 369 nm; λ em = 502 nm) was record ed during addition of 20 µ L of peptide stock solutions of varying concentrations at 60 s. At 600 s, 20µ L o f a solution containing 1.6% (wt/vol) TX-100 and 1.5 mM protamine was added for calibration to affo rd 0.016% (wt/vol) TX-100 and 15 µM protamine final concent rations.
Time-dep endent fluores cence intensit y traces, I (t), were subsequentl y normalized to fractional intensities, If(t), using equation (1). Therein, I 0 is the intensity just before addition of peptide and I ∞ is the constant intensit y after addition of the calibration cockt ail.
IIf (tt ) = II (tt )−II0II∞ − II0 (1)
The concentration-dependent fractional intensities just before the addition of the calibration cocktail, If, were then normalized to fractional membrane activities, Y, using equation (2).
Therein, If,0 is the fractional intensit y just before addition of the calibration cocktail in absence of peptide and I f,∞ is the constant fractional intensity after addition of the calibration cocktail.
YY = IIf − IIf,0IIf,∞ − IIf,0 (2)
The fractional membrane activities, Y, were subsequently plotted against the peptide concentration, c, and analysed using the Hill equation (3) to obtain the effective molar concentration, EC50, and the Hill coefficient, n. Y0 and Y ma x are the fractional membrane activities in absen ce o f p eptide and at max imal peptide concent rations. For peptides with too little activity to determine Y ma x ex perimentall y, Y max was fixed at 1.0 during fitting. […]

[5] = In 10 mM NaH2PO4, pH 7.2; ref [46]; cited from earlier work
Source text: Table 1 Binding constants of peptides to CX4. ^a) | column: K a (M^−1)

Row | SMILES | K a, binding constant of peptide to CX4 [1] | membrane activity in the CX4/LCG channel compared with the CF channel [2] | kind of pores (fluorescence response to spermine added after the peptide) [3] | Y30µM, membrane activity, CX4/LCG assay [4] | K a, binding constant of peptide to CX4 [5]
1 | CC[C@H](C)[C@H](NC(=O)CN)C(=O)NCC(=O)N[C@@H](C)C(=O)N[C@H](C(=O)N[C@@H](CC(C)C)C(=O)N[C@@H](CCCCN)C(=O)N[C@H](C(=O)N[C@@H](CC(C)C)C(=O)N[C@H](C(=O)N[C@H](C(=O)NCC(=O)N[C@@H](CC(C)C)C(=O)N1CCC[C@H]1C(=O)N[C@@H](C)C(=O)N[C@@H](CC(C)C)C(=O)N[C@H](C(=O)N[C@@H](CO)C(=O)N[C@@H](Cc1c[nH]c2ccccc12)C(=O)N[C@H](C(=O)N[C@@H](CCCCN)C(=O)N[C@@H](CCCNC(=N)N)C(=O)N[C@@H](CCCCN)C(=O)N[C@@H](CCCNC(=N)N)C(=O)N[C@@H](CCC(N)=O)C(=O)N[C@@H](CCC(N)=O)C(N)=O)[C@@H](C)CC)[C@@H](C)CC)[C@@H](C)O)[C@@H](C)O)C(C)C)C(C)C [Melittin] | (1.2 ± 0.3) × 10^7 M^−1 | higher activity with the CF assay | forms stable equilibrium pores | – | –
2 | N=C(N)NCCC[C@H](NC(=O)[C@H](CCCNC(=N)N)NC(=O)[C@H](CCCNC(=N)N)NC(=O)[C@H](CCCNC(=N)N)NC(=O)[C@H](CCCNC(=N)N)NC(=O)[C@H](CCCNC(=N)N)NC(=O)[C@@H](N)CCCNC(=N)N)C(=O)O [Peptide R7, heptaarginine] | – | – | – | 0.17 | (7.2 ± 0.5) × 10^7 M^−1
3 | N=C(N)NCCC[C@H](NC(=O)[C@H](CCCNC(=N)N)NC(=O)[C@H](CCCNC(=N)N)NC(=O)[C@H](CCCNC(=N)N)NC(=O)[C@H](CCCNC(=N)N)NC(=O)[C@H](CCCNC(=N)N)NC(=O)[C@H](CCCNC(=N)N)NC(=O)[C@H](CCCNC(=N)N)NC(=O)[C@@H](N)CCCNC(=N)N)C(=O)O [Peptide R9, nonaarginine] | (1.8 ± 0.4) × 10^8 M^−1 | – | – | 0.11 | –
